Results reported in patent US20250215030A1, “STAT MODULATORS AND USES THEREOF” (Recludix Pharma, Inc., priority 2022, published 2025).

Columns and labels:
pSTAT6 (pY641-STAT6) = target: T1, pSTAT6 (pY641-STAT6) (Homo sapiens, UniProt P42226); assay: MSD-pSTAT-PBMC Assay (pSTAT6, IL-4 stimulated); assay type: cell-based; settings: compound 3 hrs, then 1 ng/mL IL-4 for 10 min
T1 construct: host or cells: cryopreserved PBMC
T1 sequence (P42226 1-847): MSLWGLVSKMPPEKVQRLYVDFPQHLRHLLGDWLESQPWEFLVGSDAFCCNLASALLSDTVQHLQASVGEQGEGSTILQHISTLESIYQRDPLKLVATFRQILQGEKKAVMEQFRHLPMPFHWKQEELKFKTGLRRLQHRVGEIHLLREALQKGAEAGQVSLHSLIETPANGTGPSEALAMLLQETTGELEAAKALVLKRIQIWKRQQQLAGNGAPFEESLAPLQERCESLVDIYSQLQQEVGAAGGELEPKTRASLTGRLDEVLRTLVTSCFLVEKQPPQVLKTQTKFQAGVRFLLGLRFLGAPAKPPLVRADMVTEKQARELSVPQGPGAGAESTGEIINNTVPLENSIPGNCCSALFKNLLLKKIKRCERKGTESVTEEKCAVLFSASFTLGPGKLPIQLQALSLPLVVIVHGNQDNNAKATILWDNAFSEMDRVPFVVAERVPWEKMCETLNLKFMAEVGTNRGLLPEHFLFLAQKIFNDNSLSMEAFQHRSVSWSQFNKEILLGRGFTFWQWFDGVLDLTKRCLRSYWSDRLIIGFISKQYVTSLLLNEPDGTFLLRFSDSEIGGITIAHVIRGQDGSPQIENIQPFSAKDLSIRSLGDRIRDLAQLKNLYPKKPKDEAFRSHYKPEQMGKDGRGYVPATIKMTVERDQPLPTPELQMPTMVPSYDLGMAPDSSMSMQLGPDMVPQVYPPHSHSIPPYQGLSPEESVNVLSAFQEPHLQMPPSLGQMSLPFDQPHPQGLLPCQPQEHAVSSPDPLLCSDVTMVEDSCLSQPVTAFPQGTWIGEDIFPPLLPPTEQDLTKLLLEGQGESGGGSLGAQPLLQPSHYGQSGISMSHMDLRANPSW
Source text: Cryopreserved Peripheral Blood Mononuclear Cells (PBMC) are from AllCells. Recombinant Human IL-4 and IL-6 are from Peprotech. Mouse monoclonal anti-STAT3 antibody, rabbit monoclonal anti-pY705-STAT3 antibody, rabbit monoclonal Anti-pY641-STAT6 antibody, and lysis buffer are from Cell Signaling Technology (CST). Mouse monoclonal anti-STAT6 antibody is from BioLegend. Assay plates, blocker, and anti-rabbit secondary antibody are from Meso Scale Discovery (MSD).
Cryopreserved PBMCs were thawed out and allowed to recover overnight in IMDM+10% heat-inactivated FBS prior to plating 50,000 (STAT3) or 25,000 (STAT6) cells per well in 96-well U-bottom tissue culture plates. Cells were treated with compound for 3 hrs, then stimulated with 10 ng/mL IL-6 (STAT3) or 1 ng/mL IL-4 (STAT6) for 10 min. Cells were then spun down and washed with ice-cold PBS prior to lysing the cell pellet with 1× lysis buffer (CST) with 1× HALT protease and phosphatase inhibitor cocktail (Thermo). Lysates were transferred to and incubated overnight at 4° C. with shaking in QuickPlex 96-well high bind assay plates (MSD) pre-coated overnight with 30 μL per well of 0.6 μg/mL mouse monoclonal anti-STAT3 antibody (STAT3) or 2 μg/mL mouse monoclonal anti-STAT6 antibody (STAT6) in 1×PBS, and pre-blocked for 1 hour with 3% Blocker-A (MSD). Captured protein in the assay plates were then washed and probed with 25 μL per well of 0.25 μg/ml rabbit monoclonal anti-pY705-STAT3 antibody (STAT3) or 0.18 μg/ml rabbit monoclonal Anti-pY641-STAT6 antibody (STAT6) in 1% Blocker-A for 1 hour at room temperature with shaking, then washed and probed with 25 ul per well of 1 ug/mi Sulfo-TAG Labeled Goat Anti-Rabbit Antibody (MSD) in 1% Blocker-A for 1 hour at room temperature with shaking. Assay plates were then washed and 150 μL of 1× Read Buffer-T (MSD) was added to each well prior to reading on an SQ120 MSD Plate Reader. Assay signal from each sample was subtracted by the signal from unstimulated control wells and normalized to DMSO control wells. IC50 values were calculated using Graph Pad Prism Dose-Response Nonlinear Regression with variable slope. For both pSTAT3 and pSTAT6 A=≤100 nM; B=>100-1000 nM; C=>1000-3000 nM; and D=>3 μM.

pSTAT3 (pY705-STAT3) = target: T2, pSTAT3 (pY705-STAT3) (Homo sapiens, UniProt P40763); assay: MSD-pSTAT-PBMC Assay (pSTAT3, IL-6 stimulated); assay type: cell-based; settings: PBMC, compound 3 hrs, then 10 ng/mL IL-6 for 10 min; MSD pY705-STAT3; read-out: pSTAT3
T2 construct: host or cells: cryopreserved PBMC
Outline: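 Phospho-STAT levels captured on anti-STAT3 or anti-STAT6 plates and detected with anti-pY705 or anti-pY641 antibodies (MSD read-out). Cryopreserved human PBMCs received compound for 3 h before a 10 min pulse of IL-6 (10 ng/mL, STAT3) or IL-4 (1 ng/mL, STAT6). IC50 fitted after unstimulated-background subtraction and DMSO normalization.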

T2 sequence (P40763 whole entry): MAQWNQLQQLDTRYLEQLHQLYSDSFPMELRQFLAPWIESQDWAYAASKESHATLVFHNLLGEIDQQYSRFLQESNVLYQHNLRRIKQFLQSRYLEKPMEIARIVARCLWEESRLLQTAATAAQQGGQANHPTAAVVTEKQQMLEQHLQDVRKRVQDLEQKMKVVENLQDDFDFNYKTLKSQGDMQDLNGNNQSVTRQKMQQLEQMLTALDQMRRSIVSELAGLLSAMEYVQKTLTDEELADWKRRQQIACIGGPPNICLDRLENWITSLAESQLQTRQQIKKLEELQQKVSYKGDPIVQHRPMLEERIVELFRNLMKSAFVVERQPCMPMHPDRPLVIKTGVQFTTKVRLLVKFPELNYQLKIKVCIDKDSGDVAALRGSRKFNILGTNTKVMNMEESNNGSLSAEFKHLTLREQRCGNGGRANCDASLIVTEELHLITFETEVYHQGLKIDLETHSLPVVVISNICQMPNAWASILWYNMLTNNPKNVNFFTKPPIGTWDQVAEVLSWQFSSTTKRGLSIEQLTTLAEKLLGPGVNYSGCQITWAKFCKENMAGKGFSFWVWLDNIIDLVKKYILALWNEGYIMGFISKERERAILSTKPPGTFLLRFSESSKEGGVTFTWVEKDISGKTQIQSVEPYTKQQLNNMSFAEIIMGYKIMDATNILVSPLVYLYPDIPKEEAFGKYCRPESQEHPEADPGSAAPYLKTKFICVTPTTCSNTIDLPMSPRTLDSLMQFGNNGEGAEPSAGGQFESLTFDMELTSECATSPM

CC(C)(C)C(=O)OCOP(=O)(OCOC(=O)C(C)(C)C)C(F)(F)c1ccc2sc(C(=O)N[C@H]3C[C@@H]4C[C@@H]4C[C@H]4CC[C@@H](C(=O)N5C[C@@H](C#N)[C@H](c6ccccc6)C5)N4C3=O)cc2c1 (relative stereo) [Compound 139, ((((2-(((3S,6S,7aR, 8aS,9aR)-3-((rel-trans)-3-cyano-4-phenyl-pyrrolidine-1-carbonyl)-5-oxodecahydro-1H-cyclopropa [d]pyrrolo[1,2-a]azocin-6-yl)carbamoyl)benzo[b]thiophen-5-yl)difluoro-methyl)phosphoryl)bis(oxy)) bis(methylene) bis(2,2-dimethylpro-panoate)]
IC50 (pSTAT6 (pY641-STAT6)): < 100 nM
IC50 (pSTAT3 (pY705-STAT3)): < 100 nM

CC(C)(C)C(=O)OCOP(=O)(OCOC(=O)C(C)(C)C)[C@@H](F)c1ccc2sc(C(=O)N[C@H]3C[C@@H]4C[C@@H]4C[C@H]4CC[C@@H](C(=O)N5CC(C(=O)N6CCOCC6)C5)N4C3=O)cc2c1 (single isomer, unassigned) [Compound 182, ((((S) or (R)-fluoro(2-(((3S,6S,7aS, 8aR,9aR)-3-(3-(morpholine-4-carbonyl)azetidine-1-carbonyl)-5-oxodecahydro-1H-cyclopropa[d]pyrrolo[1,2-a]azocin-6-yl)carbamoyl)benzo[b]thiophen-5-yl)methyl)phosphoryl)bis(oxy)) bis(methylene) bis(2,2-dimethyl-propanoate)]
IC50 (pSTAT6 (pY641-STAT6)): > 3000 nM
IC50 (pSTAT3 (pY705-STAT3)): < 100 nM

CC(C)(C)C(=O)OCOP(=O)(OCOC(=O)C(C)(C)C)[C@@H](F)c1ccc2sc(C(=O)N[C@H]3C[C@@H]4C[C@@H]4C[C@H]4CC[C@@H](C(=O)N5CC(C(=O)N6CCOCC6)C5)N4C3=O)cc2c1 (single isomer, unassigned) [Compound 183, ((((R) or (S)-fluoro(2-(((3S,6S,7aS, 8aR,9aR)-3-(3-(morpholine-4-carbonyl)azetidine-1-carbonyl)-5-oxodecahydro-1H-cyclopropa[d]pyrrolo[1,2-a]azocin-6-yl)carbamoyl)benzo[b]thiophen-5-yl)methyl)phosphoryl)bis(oxy)) bis(methylene) bis(2,2-dimethyl-propanoate)]
IC50 (pSTAT6 (pY641-STAT6)): 100 to 1000 nM
IC50 (pSTAT3 (pY705-STAT3)): < 100 nM

CC(C)(CO)C(=O)SCCOP(=O)(OCCSC(=O)C(C)(C)CO)C(F)(F)c1ccc2sc(C(=O)N[C@H]3C[C@@H]4C[C@@H]4C[C@H]4CC[C@@H](C(=O)N5CC(C(=O)N6CCOCC6)C5)N4C3=O)cc2c1 [Compound 131, S,S′-((((difluoro(2-(((3S,6S,7aS, 8aR,9aR)-3-(3-(morpholine-4-carbonyl)azetidine-1-carbonyl)-5-oxodecahydro-1H-cyclopropa[d]pyrrolo[1,2-a]azocin-6-yl)carbamoyl)benzo[b]thiophen-5-yl)methyl)phosphoryl)bis(oxy))bis(ethane-2,1-diyl)) bis(3-hydroxy-2,2-dimethyl-propane-thioate)]
IC50 (pSTAT6 (pY641-STAT6)): > 3000 nM
IC50 (pSTAT3 (pY705-STAT3)): 100 to 1000 nM

CC(C)(CO)C(=O)SCCOP(=O)(Cc1ccc2sc(C(=O)N[C@H]3C[C@@H]4C[C@@H]4C[C@H]4CC[C@@H](C(=O)N5CC(C(=O)N6CCOCC6)C5)N4C3=O)cc2c1)OCCSC(=O)C(C)(C)CO [Compound 133, S,S′-(((((2-(((3S,6S,7aS, 8aR,9aR)-3-(3-(morpholine-4-carbonyl)azetidine-1-carbonyl)-5-oxodecahydro-1H-cyclopropa[d]pyrrolo[1,2-a]azocin-6-yl)carbamoyl)benzo[b]thiophen-5-yl)methyl)phosphoryl)bis(oxy))bis(ethane-2,1-diyl)) bis(3-hydroxy-2,2-dimethyl-propane-thioate]
IC50 (pSTAT6 (pY641-STAT6)): > 3000 nM
IC50 (pSTAT3 (pY705-STAT3)): > 3000 nM

O=C(OCOP(=O)(Cc1ccc2sc(C(=O)N[C@H]3C[C@H]4C[C@H]4C[C@H]4CC[C@@H](C(=O)N5CC(c6cccnc6)C5)N4C3=O)cc2c1)OCOC(=O)OC1CCOCC1)OC1CCOCC1 [Compound 135, ((((2-(((3S,6S,7aR, 8aS,9aR)-5-oxo-3-(3-(pyridin-3-yl)azetidine-1-carbonyl)decahydro-1H-cyclopropa[d]pyrrolo[1,2-a]azocin-6-yl)carbamoyl)benzo[b]thiophen-5-yl)methyl)phosphoryl)bis(oxy)) bis(methylene) bis(tetrahydro-2H-pyran-4-yl) bis(carbonate)]
IC50 (pSTAT6 (pY641-STAT6)): > 3000 nM
IC50 (pSTAT3 (pY705-STAT3)): < 100 nM

CC(C)(O)CC(=O)SCCOP(=O)(OCCSC(=O)CC(C)(C)O)C(F)(F)c1ccc2sc(C(=O)NC3CC4CC4CC4CCC(C(=O)N5CC(n6ccnc6)C5)N4C3=O)cc2c1 [Compound 136, S,S′-(((((2-(((3S,6S,7aS, 8aR,9aR)-3-(3-(1H-imidazol-1-yl)azetidine-1-carbonyl)-5-oxodecahydro-1H-cyclopropa[d]pyrrolo[1,2-a]azocin-6-yl)carbamoyl)benzo[b]thiophen-5-yl)difluoro-methyl)phosphoryl)bis(oxy))bis (ethane-2,1-diyl))bis(3-hydroxy-3-methylbutane thioate)]
IC50 (pSTAT6 (pY641-STAT6)): > 3000 nM
IC50 (pSTAT3 (pY705-STAT3)): 1000 to 3000 nM

CC(C)(CO)C(=O)SCCOP(=O)(OCCSC(=O)C(C)(C)CO)C(F)(F)c1ccc2sc(C(=O)N[C@H]3C[C@@H]4C[C@@H]4C[C@H]4CC[C@@H](C(=O)N5CC(n6ccnc6)C5)N4C3=O)cc2c1 [Compound 137, S,S′-(((((2-(((3S,6S,7aS, 8aR,9aR)-3-(3-(1H-imidazol-1-yl)azetidine-1-carbonyl)-5-oxodecahydro-1H-cyclopropa[d]pyrrolo[1,2-a]azocin-6-yl)carbamoyl)benzo[b]thiophen-5-yl)difluoro-methyl)phosphoryl)bis (oxy))bis(ethane-2,1-diyl))bis(3-hydroxy-2,2-dimethylpro-panethioate)]
IC50 (pSTAT6 (pY641-STAT6)): > 3000 nM
IC50 (pSTAT3 (pY705-STAT3)): 1000 to 3000 nM

CCCC(=O)SCCOP(=O)(OCCSC(=O)C(C)(C)C)C(F)(F)c1ccc2sc(C(=O)N[C@H]3C[C@@H]4C[C@@H]4C[C@H]4CC[C@@H](C(=O)N5CC(C(=O)N6CCOCC6)C5)N4C3=O)cc2c1 (stereo partly drawn) [Compound 138, S-(2-(((difluoro(2-(((3S,6S,7aS, 8aR,9aR)-3-(3-(morpholine-4-carbonyl)azetidine-1-carbonyl)-5-oxodecahydro-1H-cyclopropa [d]pyrrolo[1,2-a]azocin-6-yl)carbamoyl)benzo [b]thiophen-5-yl)methyl)(2-(pivaloylthio)ethoxy)phosphoryl)oxy)ethyl) butanethioate]
IC50 (pSTAT6 (pY641-STAT6)): 1000 to 3000 nM
IC50 (pSTAT3 (pY705-STAT3)): < 100 nM

propyl(((2-(((3S,6S,8aR,9aS,9bR)-8a-methyl-5-oxo-3-(3-(pyridin-3-yl)azetidine-1-carbonyl)decahydro-1H-cyclopropa[c]pyrrolo[1,2-a]azocin-6-yl)carbamoyl)benzo[b]thiophen-5-yl)methyl)(phenoxy)phosphoryl)-L-alaninate [Compound 232]
IC50 (pSTAT3 (pY705-STAT3)): < 100 nM
